Measurements as given in patent US9771337B2, “Neprilysin inhibitors” (THERAVANCE BIOPHARMA R&D IP, LLC, priority 2011, dated 2017).

What follows are compounds tested against T1, human NEP (Homo sapiens, UniProt P08473) (assay: In vitro enzyme inhibition assay, inhibitor potency at human NEP). Settings: pKi values at human NEP; recombinant human NEP, fluorogenic peptide substrate 10 μM, 37° C.
T1 construct: purchased R&D Systems, Minneapolis, Minn; 1182-ZN
Type: biochemical

T1 sequence (P08473 whole entry): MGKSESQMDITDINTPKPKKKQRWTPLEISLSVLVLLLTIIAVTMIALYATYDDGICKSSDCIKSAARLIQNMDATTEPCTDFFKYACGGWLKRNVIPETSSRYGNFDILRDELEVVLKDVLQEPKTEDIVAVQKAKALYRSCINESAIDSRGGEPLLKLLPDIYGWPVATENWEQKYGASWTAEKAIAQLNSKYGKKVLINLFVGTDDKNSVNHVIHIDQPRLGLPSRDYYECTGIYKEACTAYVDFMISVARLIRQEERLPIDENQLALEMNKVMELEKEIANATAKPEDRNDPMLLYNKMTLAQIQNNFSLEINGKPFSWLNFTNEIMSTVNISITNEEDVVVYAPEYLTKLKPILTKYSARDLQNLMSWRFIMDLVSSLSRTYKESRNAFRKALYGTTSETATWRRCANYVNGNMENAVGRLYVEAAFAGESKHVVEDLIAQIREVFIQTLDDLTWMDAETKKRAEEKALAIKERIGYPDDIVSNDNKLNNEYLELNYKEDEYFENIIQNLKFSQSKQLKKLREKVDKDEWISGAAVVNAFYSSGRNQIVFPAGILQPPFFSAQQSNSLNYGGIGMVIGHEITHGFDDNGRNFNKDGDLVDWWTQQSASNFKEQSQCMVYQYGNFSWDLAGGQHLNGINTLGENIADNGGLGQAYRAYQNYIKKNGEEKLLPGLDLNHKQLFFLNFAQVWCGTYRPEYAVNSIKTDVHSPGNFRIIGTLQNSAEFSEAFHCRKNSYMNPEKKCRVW

SMILES | Ki [nM]
O=C(N[C@H](Cc1ccccc1)[C@@H](O)C(=O)O)c1ccc(-c2ccccc2C(=O)O)nc1 [Example 5-21, 2-[5-((1R,2R)-1-Benzyl-2-carboxy-2-hydroxy-ethylcarbamoyl)-pyridin-2-yl]-benzoic acid] | 1.26 to 10
O=C(N[C@H](Cc1ccccc1)[C@@H](O)C(=O)O)c1ccnc(-c2ccccc2C(=O)O)c1 [Example 5-22, 2-[4-((1R,2R)-1-Benzyl-2-carboxy-2-hydroxy-ethylcarbamoyl)-pyridin-2-yl]-benzoic acid] | 1.26 to 10
O=C(N[C@H](Cc1ccccc1)[C@@H](O)C(=O)O)c1ccc(-c2ccccc2C(=O)O)cn1 [Example 5-24, 2-[6-((1R,2R)-1-Benzyl-2-carboxy-2-hydroxy-ethylcarbamoyl)-pyridin-3-yl]-benzoic acid] | 12.6 to 100
O=C(N[C@H](Cc1ccccc1)[C@@H](O)C(=O)O)c1cncc(-c2ccccc2C(=O)O)c1 [Example 5-25, 2-[5-((1R,2R)-1-Benzyl-2-carboxy-2-hydroxy-ethylcarbamoyl)-pyridin-3-yl]-benzoic acid] | 1.26 to 10
O=C(N[C@H](Cc1ccccc1)[C@@H](O)C(=O)O)c1cc(-c2ccccc2C(=O)O)ccn1 [Example 5-26, 2-[2-((1R,2R)-1-Benzyl-2-carboxy-2-hydroxy-ethylcarbamoyl)-pyridin-4-yl]-benzoic acid] | 1.26 to 10
O=C(N[C@H](Cc1ccccc1)[C@@H](O)C(=O)O)c1cnc2nn[nH]c2c1 [Example 5-29, (2R,3R)-2-Hydroxy-4-phenyl-3-[(1H-[1,2,3]triazolo[4,5-b]pyridine-6-carbonyl)-amino]-butyric acid] | 12.6 to 100
O=C(N[C@H](Cc1ccccc1)[C@@H](O)C(=O)O)c1cc2cccn2cn1 [Example 5-30, (2R,3R)-2-Hydroxy-4-phenyl-3-[(pyrrolo[1,2-c]pyrimidine-3-carbonyl)-amino]-butyric acid] | 12.6 to 100
O=C(O)c1ccc(C(=O)N[C@H](Cc2ccccc2)[C@@H](O)C(=O)O)s1 [Example 5-31, 5-((1R,2R)-1-Benzyl-2-carboxy-2-hydroxy-ethylcarbamoyl)-thiophene-2-carboxylic acid] | 1.26 to 10
O=C(O)C[C@@H](Cc1ccccc1Cl)NC(=O)c1cc(-c2ccccc2C(=O)O)ccn1 [Example 6, 2-{2-[(R)-1-Carboxymethyl-2-(2-chloro-phenyl)-ethylcarbamoyl]-pyridin-4-yl}-benzoic Acid] | 1.26 to 10
O=C(O)C[C@@H](Cc1ccccc1Cl)NC(=O)c1cnn[nH]1 [Example 7-1, (R)-4-(2-Chloro-phenyl)-3-[(3H-[1,2,3]triazole-4-carbonyl)-amino]-butyric acid] | 12.6 to 100
Cc1cc(C(=O)N[C@@H](CC(=O)O)Cc2ccccc2Cl)cc2[nH]nnc12 [Example 7-2, (R)-4-(2-Chloro-phenyl)-3-[(7-methyl-3H-benzotriazole-5-carbonyl)-amino]-butyric acid] | 12.6 to 100
O=C(O)C[C@@H](Cc1ccccc1Cl)NC(=O)c1ccc2nn[nH]c2c1 [Example 7-3, (R)-3-[(3H-Benzotriazole-5-carbonyl)-amino]-4-(2-chloro-phenyl)-butyric acid] | 12.6 to 100
O=C(O)C[C@@H](Cc1ccccc1Cl)NC(=O)c1cc(Cl)c2nn[nH]c2c1 [Example 7-4, (R)-3-[(7-Chloro-3H-benzotriazole-5-carbonyl)-amino]-4-(2-chloro-phenyl)-butyric acid] | 12.6 to 100
O=C(O)C[C@@H](Cc1ccccc1Cl)NC(=O)c1cc(F)c2[nH]nnc2c1 [Example 7-6, (R)-4-(2-Chloro-phenyl)-3-[(7-fluoro-1H-benzotriazole-5-carbonyl)-amino]-butyric acid] | 12.6 to 100
O=C(O)C[C@@H](Cc1ccccc1Cl)NC(=O)c1cnc2nn[nH]c2c1 [Example 7-7, (R)-4-(2-Chloro-phenyl)-3-[(1H-[1,2,3]triazolo[4,5-b]pyridine-6-carbonyl)-amino]-butyric acid] | 12.6 to 100
O=C(O)C[C@@H](Cc1ccccc1Cl)NC(=O)c1cnc(O)nc1 [Example 7-8, (R)-4-(2-Chloro-phenyl)-3-[(2-hydroxy-pyrimidine-5-carbonyl)-amino]-butyric acid] | 1.26 to 10
O=C(O)C[C@@H](Cc1ccccc1Cl)NC(=O)c1ccc(-c2ccccc2C(=O)O)nn1 [Example 7-9, 2-{6-[(R)-2-Carboxy-1-(2-chloro-benzyl)-ethylcarbamoyl]-pyridazin-3-yl}-benzoic acid] | 12.6 to 100
